Assay results from PubChem BioAssay (NCI).
Where “and” joins values, the source holds several entries; their conditions need not be identical. Equal entries are not always repeated.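 Interpolation was linear, between the two tested concentrations surrounding the appropriate level; five concentrations were tested over 48 hours in 96-well plates. GI50 marks 50% less growth. TGI marks complete inhibition of growth.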

Tests used:
Assay in all cases: DTP human tumour cell line panel, 48 h
MALME-3M melanoma = system: MALME-3M melanoma
A498 renal = system: A498 renal
M19-MEL melanoma = system: M19-MEL melanoma
DMS 273 small cell lung = system: DMS 273 small cell lung
SNB-78 CNS = system: SNB-78 CNS
KM20L2 colon = system: KM20L2 colon
NCI-H226 lung = system: NCI-H226 lung
DMS 114 small cell lung = system: DMS 114 small cell lung
RPMI-8226 leukemia = system: RPMI-8226 leukemia
LOX IMVI melanoma = system: LOX IMVI melanoma
SW-620 colon = system: SW-620 colon
PC-3 prostate = system: PC-3 prostate
NCI/ADR-RES ovarian = system: NCI/ADR-RES ovarian

SMILES	TGI (MALME-3M melanoma)	TGI (A498 renal)	TGI (M19-MEL melanoma)	TGI (DMS 273 small cell lung)	TGI (SNB-78 CNS)	TGI (KM20L2 colon)	TGI (NCI-H226 lung)	TGI (DMS 114 small cell lung)	TGI (RPMI-8226 leukemia)	TGI (LOX IMVI melanoma)	TGI (SW-620 colon)	GI50 (MALME-3M melanoma)	GI50 (A498 renal)	TGI (PC-3 prostate)	GI50 (NCI-H226 lung)	TGI (NCI/ADR-RES ovarian)	GI50 (LOX IMVI melanoma)	GI50 (SW-620 colon)
CCCCCCCCCCCOc1ccc(C(=O)C(=O)c2ccc(OCCCCCCCCCCC)c(OCCCCCCCCCCC)c2)cc1OCCCCCCCCCCC	> 100 µM	> 100 µM	> 100 µM	> 100 µM	> 100 µM	> 100 µM	> 100 µM	> 100 µM	> 100 µM	> 100 µM	> 100 µM	–	–	–	–	–	–	–
Cc1c2cnccc2c(C)c2c1c1ccccc1n2CCCN	2.09 µM and 1.08 µM	1.62 µM and 1.15 µM	0.915 µM	0.619 µM	2.23 µM	0.989 µM	1.86 µM and 2.78 µM	1.02 µM	0.671 µM	0.402 µM and 0.569 µM	0.878 µM and 0.211 µM	313 nM	468 nM	0.644 µM	1180 nM	1040 nM and 1160 nM	163 nM	35 nM
Cc1cc(O)c2c(=O)c3ccccc3[nH]c2c1	> 100 µM	82.6 µM	–	–	–	–	94.3 µM	–	41 µM	64.3 µM	> 100 µM	–	–	77.3 µM	–	> 100000 nM	–	–
COC(=O)[C@H]1CO[C@@H](C(C)(C)C)N1C(=O)N1C=CC(=O)C[C@@H]1C	> 100 µM	> 100 µM	–	–	–	–	> 100 µM	–	> 100 µM	> 100 µM	> 100 µM	–	–	> 100 µM	–	> 100000 nM	–	–
C(/c1ccco1)=c1/nc(-c2ccccc2)n2c1nc1ccccc12	> 100 µM	> 100 µM	–	–	–	–	> 100 µM	–	44.4 µM	> 100 µM	> 100 µM	–	–	9.43 µM	–	> 100000 nM	–	–
COc1cc([C@@H]2OCC3C(c4ccc5c(c4)OCO5)OCC32)cc(OC)c1OC (some centres undefined)	> 100 µM	> 100 µM	> 100 µM	> 100 µM	> 100 µM	> 100 µM	> 100 µM	> 100 µM	> 100 µM	> 100 µM	> 100 µM	–	–	–	–	–	–	–
